For data set [1], the system named is Human immunodeficiency virus 1. In words: Antiviral activity against wild type HIV1 NLRepRlucP373S infected in human MT2 cells after 4 to 5 days in presence of 15 mg/ml HSA by luciferase report gene based multiple cycle drug susceptibility assay. The conditions noted are these: Human immunodeficiency virus 1, NLRepRlucP373S. The class given is functional, organism-based.

Data set [2] is described as follows: Cytotoxicity against human MT2 cells assessed as cell viability by redox dye assay. The class given is cell-based.
In data set [3] the test system is Human immunodeficiency virus 1. In words: Antiviral activity against HIV1 containing gag V370A mutant infected in human MT2 cells after 4 to 5 days by luciferase report gene based multiple cycle drug susceptibility assay. The class given is functional, organism-based. The settings on record: Human immunodeficiency virus 1, MT2.
The subject of data set [4] is Human immunodeficiency virus 1. In words: Ratio of EC50 for HIV1 NLRepRlucP373S infected in human MT2 cells in presence of HSA to EC50 for HIV1 NLRepRlucP373S infected in human MT2 cells in absence of HSA. In kind it is functional.
Data set [5] concerns Human immunodeficiency virus 1. Put plainly: Antiviral activity against wild type HIV1 NLRepRlucP373S infected in human MT2 cells after 4 to 5 days by luciferase report gene based multiple cycle drug susceptibility assay. In kind it is functional, organism-based. The conditions noted are these: Human immunodeficiency virus 1, NLRepRlucP373S.
The nature of data set [6]: Tmax in rat at 5 mg/kg, po by LC-MS/MS. The conditions noted are these: in vivo. In kind it is ADME, organism-based.
A short description of data set [7]: Oral bioavailability in rat at 5 mg/kg by LC-MS/MS. The class given is ADME, organism-based. The settings on record: in vivo.
A short description of data set [8]: Protein binding of the compound in plasma (unknown origin). The conditions noted are these: read-out: PB. The class given is ADME, cell-free.
Data set [9] can be described thus: Clearance in cannula implanted rat at 1 mg/kg, iv by LC-MS/MS. In kind it is ADME, organism-based. The conditions noted are these: in vivo.
Data set [10] can be described thus: Cmax in rat at 5 mg/kg, po by LC-MS/MS. The class given is ADME, organism-based. More on the design: dose 5 mg/kg, route oral. The conditions noted are these: in vivo.
A short description of data set [11]: Displacement of [3H]-dihydro-bevirimat from HIV1 Gag polyprotein virus like particles after 3 hrs. More on the design: species or system Human immunodeficiency virus 1. (In a radioligand displacement assay an active substance lowers the binding of a labelled ligand.)
Data set [12] in a line: Volume of distribution in steady state in cannula implanted rat at 1 mg/kg, iv by LC-MS/MS. In kind it is ADME, organism-based. The conditions noted are these: in vivo, read-out: Vdss.
Data set [13] in a line: AUC(0 to 6 hrs) in rat at 5 mg/kg, po by LC-MS/MS. The class given is ADME, organism-based. More on the design: time < 6 hr, dose 5 mg/kg, route oral. The settings on record: in vivo.
A short description of data set [14]: Half life in human liver microsomes at 0.5 uM by LC-MS/MS analysis in presence of NADPH. In kind it is ADME. For orientation: Liver microsomes are vesicles of endoplasmic reticulum, rich in cytochrome P450 enzymes.
Data set [15] has as its system Human immunodeficiency virus 1. In words: Antiviral activity against wild type HIV1 NLRepRlucP373S infected in human MT2 cells after 4 to 5 days in presence of 27 mg/ml HSA by luciferase report gene based multiple cycle drug susceptibility assay. The class given is functional, organism-based. The conditions noted are these: Human immunodeficiency virus 1, NLRepRlucP373S.

For the next data set, the system named is HEK-293T. In words: Binding affinity to HIV1 Gag polyprotein assessed as protease-mediated p25-Spacer peptide 1 cleavage in HEK293T cells by measuring […] ratio at 2 uM by Western blot analysis. The class given is cell-based. The settings on record: Human immunodeficiency virus 1.
Data set [16] is described as follows: Half life in rat liver microsomes at 0.5 uM by LC-MS/MS analysis in presence of NADPH. The class given is ADME.
Data set [17] in a line: Solubility of the compound. In kind it is physicochemical.

A value given as a limit tells only on which side of the number the result lay.

One may read the EC50 as the concentration needed to bring the measured effect to its halfway point. Usually CC50 stands for the concentration at which the toxic effect on the cells reaches its halfway point. For the molecule `C=C(C)[C@@H]1CC[C@]2(CO)CC[C@]3(C)[C@H](CC[C@@H]4[C@@]5(C)CC=C(c6ccc(C(=O)O)c(O)c6)C(C)(C)[C@@H]5CC[C@]43C)[C@@H]12`, the EC50 in data set [1] is 65 nM; in data set [3], 2780 nM; in [5], 81 nM. Besides, the CC50 in data set [2] turned out to be 9760 nM. In addition, the “Ratio EC50” value in [4] came out at 0.8.

Regarding `C=C(C)[C@@H]1CC[C@]2(C(=O)O)CC[C@]3(C)[C@H](CC[C@@H]4[C@@]5(C)CC=C(c6ccc(C(=O)NS(=O)(=O)C(C)C)cc6)C(C)(C)[C@@H]5CC[C@]43C)[C@@H]12`, the values for the EC50 in data set [1], in data set [3] and in [5] were 275 nM, 937 nM and 124 nM, respectively. Further, in data set [2], the cytotoxic concentration (CC50) is 8680 nM. For the same molecule, in [4], the “Ratio EC50” value was found to be 2.2.

Turning to `C=C(C)[C@@H]1CC[C@]2(C(=O)O)CC[C@]3(C)[C@H](CC[C@@H]4[C@@]5(C)CC=C(c6ccc(C(=O)O)c(Cl)c6)C(C)(C)[C@@H]5CC[C@]43C)[C@@H]12`, the values for the EC50 in [1], in data set [3] and in [5] were 331 nM, 589 nM and 21 nM, respectively. Also, the CC50 in data set [2] amounted to 3080 nM. The “Ratio EC50” value in [4] worked out at 15.

On to `C=C(C)[C@@H]1CC[C@]2(C(=O)O)CC[C@]3(C)[C@H](CC[C@@H]4[C@@]5(C)CC[C@H](OC(=O)CC(C)(C)CC(=O)O)C(C)(C)[C@@H]5CC[C@]43C)[C@@H]12`, for which the figures for the concentration for a half-maximal effect (EC50) in [1] and in [5] were 909 nM and 4 nM, respectively. Besides, the CC50 in [2] came to 4250 nM. In addition, in data set [4], the “Ratio EC50” value is 227.

With `C=C(C)[C@@H]1CC[C@]2(CO)CC[C@]3(C)[C@H](CC[C@@H]4[C@@]5(C)CC=C(c6ccc(C(=O)O)cc6F)C(C)(C)[C@@H]5CC[C@]43C)[C@@H]12`, the EC50 in data set [1] was found to be 50 nM; in data set [3] it was 1400 nM; in data set [5], 55 nM. Further, the CC50 in data set [2] turned out to be 16500 nM. For the same molecule, the “Ratio EC50” value in data set [4] is given as 1.

In the case of `C=C(C)[C@@H]1CC[C@]2(CO)CC[C@]3(C)[C@H](CC[C@@H]4[C@@]5(C)CC=C(c6ccc(C(=O)O)cc6Cl)C(C)(C)[C@@H]5CC[C@]43C)[C@@H]12`, the EC50 was 117 nM in [1], greater than 4000 nM in [3] and 114 nM in [5]. Moreover, the half-maximal cytotoxic concentration (CC50) in data set [2] is 17300 nM. In addition, the “Ratio EC50” value in data set [4] was determined as 1.

As for `C=C(C)[C@@H]1CC[C@]2(CO)CC[C@]3(C)[C@H](CC[C@@H]4[C@@]5(C)CC=C(c6ccc(C(=O)O)c(F)c6)C(C)(C)[C@@H]5CC[C@]43C)[C@@H]12`, the EC50 in [1] stood at 185 nM; in data set [3], 309 nM; in [5], 46 nM. The CC50 in data set [2] was found to be 18800 nM. Moreover, the “Ratio EC50” value in data set [4] is reported as 4.

In general, Tmax refers to the time at which the peak concentration occurs. The term bioavailability denotes the share of a dose that reaches the circulation, judged against a reference dose that is usually intravenous. Read a low bioavailability as poor availability. As usually defined, the clearance is a measure of how efficiently the substance is removed, as volume per time. Usually Cmax stands for the maximum level reached in the sampled fluid or tissue. In the case of `C=C(C)[C@@H]1CC[C@]2(C(=O)O)CC[C@]3(C)[C@H](CC[C@@H]4[C@@]5(C)CC[C@H](OC(=O)CC(C)(C)C(=O)O)C(C)(C)[C@@H]5CC[C@]43C)[C@@H]12` [BEVIRIMAT], in data set [6], the Tmax amounted to 0.3 h. The same molecule displayed a bioavailability in data set [7] of 18%. In data set [8], the fraction unbound is less than 0.001. This molecule displayed a clearance in data set [9] of 4 mL/min/kg. In addition, in data set [10], the Cmax is 2590 nM.

As for `C=C(C)[C@@H]1CC[C@]2(CO)CC[C@]3(C)[C@H](CC[C@@H]4[C@@]5(C)CC=C(c6ccc(C(=O)O)cc6C)C(C)(C)[C@@H]5CC[C@]43C)[C@@H]12`, the results for the EC50 in data set [1], in [3] and in data set [5] were 660 nM, 3880 nM and 613 nM, respectively. Besides, the CC50 in data set [2] came out at 7020 nM. The “Ratio EC50” value in [4] is recorded as 1.

`C=C(C)[C@@H]1CC[C@]2(CO)CC[C@]3(C)[C@H](CC[C@@H]4[C@@]5(C)CC=C(c6cc(C(=O)O)no6)C(C)(C)[C@@H]5CC[C@]43C)[C@@H]12`: the EC50 was 295 nM in data set [1], greater than 2000 nM in data set [3] and 39 nM in data set [5]. The CC50 in data set [2] stood at 12100 nM. In [4], the “Ratio EC50” value was determined as 7.5.

Turning to `C=C(C)[C@@H]1CC[C@]2(CO)CC[C@]3(C)[C@H](CC[C@@H]4[C@@]5(C)CC=C(c6ccc(C(=O)O)c(OC)c6)C(C)(C)[C@@H]5CC[C@]43C)[C@@H]12`, the EC50 in data set [1] is 1190 nM; in data set [3] it was greater than 4000 nM; in data set [5], 513 nM. Also, the CC50 in data set [2] stood at 28700 nM. Besides, in data set [4], the “Ratio EC50” value was 2.3.

For orientation: IC50 means the concentration at which inhibition is half-maximal. A higher IC50 goes with a need for much substance. For orientation: AUC(0-t) means the area under the concentration-time curve up to a stated or last time point. A lower AUC(0-t) goes with low exposure. What is called half-life is the time in which the quantity being followed falls by half. Consider `C=C(C)[C@@H]1CC[C@]2(C(=O)O)CC[C@]3(C)[C@H](CC[C@@H]4[C@@]5(C)CC=C(c6ccc(C(=O)O)cc6)C(C)(C)[C@@H]5CC[C@]43C)[C@@H]12`, for which, in data set [11], the IC50 stood at 27 nM. The Tmax in [6] stood at 4 h. In addition, the Vd in data set [12] is 0.2 L/kg. Further, the bioavailability in data set [7] was 4%. The AUC(0-t) at 6 h in data set [13] was 5.72 µM·h. The CC50 in data set [2] came to 27200 nM. Further, the half-life at 0.5 µM in [14] and in [16] was 2 h in each case. Also, in data set [15], the EC50 stood at 310 nM. Moreover, the clearance in [9] is 1 mL/min/kg. Besides, the Cmax in data set [10] turned out to be 1310 nM. The Ratio in the data set on HEK-293T came to 1.6. Moreover, the solubility entry in data set [17] is “Insoluble”.

Take `C=C(C)[C@@H]1CC[C@]2(C(=O)O)CC[C@]3(C)[C@H](CC[C@@H]4[C@@]5(C)CC=C(c6ccc(C(=O)O)c(F)c6)C(C)(C)[C@@H]5CC[C@]43C)[C@@H]12`: the EC50 in data set [1] is 67 nM; in data set [3] it was 36 nM; in data set [5] it was 18 nM. Besides, the cytotoxic concentration (CC50) in data set [2] turned out to be 10100 nM. The “Ratio EC50” value in data set [4] is 3.7.

For the molecule `C=C(C)[C@@H]1CC[C@]2(CO)CC[C@]3(C)[C@H](CC[C@@H]4[C@@]5(C)CC=C(c6ccc(C(=O)O)c(Cl)c6)C(C)(C)[C@@H]5CC[C@]43C)[C@@H]12`, the EC50 in data set [1] was determined as 94 nM; in data set [3], 262 nM; in data set [5], 24 nM. The CC50 in data set [2] came out at 1970 nM. In data set [4], the “Ratio EC50” value stood at 3.9.

Consider `C=C(C)[C@@H]1CC[C@]2(CO)CC[C@]3(C)[C@H](CC[C@@H]4[C@@]5(C)CC=C(c6cnc(C(=O)O)nc6)C(C)(C)[C@@H]5CC[C@]43C)[C@@H]12`, for which the values for the EC50 in data set [1], in data set [3] and in data set [5] were 1080 nM, greater than 4000 nM and 1080 nM, respectively. Besides, the CC50 in data set [2] was determined as 22300 nM. Also, in [4], the “Ratio EC50” value is reported as 1.

Regarding `C=C(C)[C@@H]1CC[C@]2(CO)CC[C@]3(C)[C@H](CC[C@@H]4[C@@]5(C)CC=C(c6ccc(C(=O)O)cc6)C(C)(C)[C@@H]5CC[C@]43C)[C@@H]12`, the EC50 in data set [1] worked out at 27 nM; in [3], 212 nM; in [5] it was 11 nM. For the same molecule, the time to peak (Tmax) in data set [6] was 5 h. For the same molecule, the Vd in data set [12] worked out at 0.5 L/kg. Further, in data set [7], the bioavailability amounted to 4%. The AUC(0-t) at 6 h in data set [13] came out at 2.14 µM·h. The CC50 in [2] worked out at 9650 nM. The half-life at 0.5 µM in [14] and in data set [16] was 2 h each time. Further, the clearance in [9] worked out at 2.1 mL/min/kg. Besides, the “Ratio EC50” value in data set [4] amounted to 2.5. In addition, the peak level in data set [10] (Cmax) was 590 nM. Also, the solubility entry in data set [17] is given as “Insoluble”.

The values are drawn from ChEMBL document CHEMBL3774389, “C-3 benzoic acid derivatives of C-3 deoxybetulinic acid and deoxybetulin as HIV-1 maturation inhibitors” (Bioorg Med Chem, 2016).
